Measurements reported in the CheMixHub viscosity set.

Assay: xn = mol fraction of the nth substance listed

CCC(=O)O + NC=O
viscosity [mPa·s]
Settings	298.15 K	303.15 K	308.15 K	313.15 K
101 kPa, x2 = 0.1002	2.15	–	–	1.52
101 kPa, x2 = 0.1949	3.368	–	–	2.231
101 kPa, x2 = 0.2992	4.445	–	–	2.877
101 kPa, x2 = 0.3979	5.67	–	–	3.546
101 kPa, x2 = 0.4976	6.48	–	–	4.16
101 kPa, x2 = 0.5987	6.98	–	–	4.528
101 kPa, x2 = 0.7338	7.19	–	–	4.708
101 kPa, x2 = 0.8115	6.92	–	–	4.48
101 kPa, x2 = 0.9101	5.59	–	–	3.551
101 kPa, x2 = 0.976	3.838	–	–	–
101.33 kPa, x2 = 0.0769	1.4	1.28	1.19	1.09
101.33 kPa, x2 = 0.1507	1.89	1.7	1.57	1.46
101.33 kPa, x2 = 0.2323	2.54	2.25	2.05	1.89
101.33 kPa, x2 = 0.3109	3.21	2.78	2.5	2.27
101.33 kPa, x2 = 0.393	3.83	3.28	2.94	2.64
101.33 kPa, x2 = 0.4098	3.92	3.37	3.01	2.69
101.33 kPa, x2 = 0.4649	4.24	3.62	3.23	2.89
101.33 kPa, x2 = 0.5404	4.48	3.83	3.41	3.03
101.33 kPa, x2 = 0.6138	4.8	4.06	3.6	3.2
101.33 kPa, x2 = 0.6916	4.7	4.01	3.57	3.18
101.33 kPa, x2 = 0.7633	4.49	3.84	3.43	3.07
101.33 kPa, x2 = 0.8461	4.22	3.63	3.26	2.93
101.33 kPa, x2 = 0.9226	3.75	3.25	2.94	2.66

Nc1cccc(Cl)c1 + NCCO
Settings	viscosity [mPa·s]
308.15 K, 100 kPa, x1 = 0.3619	8.885

CCC(=O)O + Nc1ccccc1
Settings	viscosity [mPa·s]
298.15 K, 101 kPa, x1 = 0.0996	4.218
298.15 K, 101 kPa, x1 = 0.2015	4.652
298.15 K, 101 kPa, x1 = 0.2966	5.177
298.15 K, 101 kPa, x1 = 0.388	5.87
298.15 K, 101 kPa, x1 = 0.4955	6.898
298.15 K, 101 kPa, x1 = 0.5962	7.775
298.15 K, 101 kPa, x1 = 0.716	7.294
298.15 K, 101 kPa, x1 = 0.7994	5.282
298.15 K, 101 kPa, x1 = 0.895	2.477
308.15 K, 101.33 kPa, x1 = 0.1243	2.912
308.15 K, 101.33 kPa, x1 = 0.2382	3.203
308.15 K, 101.33 kPa, x1 = 0.3507	3.59
308.15 K, 101.33 kPa, x1 = 0.4545	3.971
308.15 K, 101.33 kPa, x1 = 0.5568	4.468
308.15 K, 101.33 kPa, x1 = 0.6544	4.762
308.15 K, 101.33 kPa, x1 = 0.7452	4.169
308.15 K, 101.33 kPa, x1 = 0.7903	3.402
308.15 K, 101.33 kPa, x1 = 0.8345	2.792
308.15 K, 101.33 kPa, x1 = 0.8774	2.008
308.15 K, 101.33 kPa, x1 = 0.918	1.561
308.15 K, 101.33 kPa, x1 = 0.9595	1.168
